Laboratory results published in patent US9956198B2, “Furo[3,4-b]pyran compounds and pharmaceutical uses” (Victoria Link Limited, priority 2013, dated 2018).
Like-named read-outs stand apart in the source and are kept apart here.

Tests used:
[1] = tested on: PTH-induced bone resorption; conditions: cited from earlier work
c-Src (sarcoma) kinase = c-Src (sarcoma) kinase (Homo sapiens, UniProt P12931); conditions: cited from earlier work
[2] = tested on: HL-60 (human leukaemia) cell line; assay: MTT cell proliferation assay, HL-60; assay type: cell-based; conditions: HL-60, MTT assay, 2 days, read-out: IC50, growth inhibition
Method: (§1) Cancer assays were performed using MTT cell proliferation assays with three different immortalised cell lines: a human leukaemia cell line (HL-60), an ovarian cancer cell line (1A9) and a breast cancer cell line (MCF7).
(§2) HL-60, 1A9 and MCF cells were cultured at 37° C. in a 5% CO2 in air atmosphere in RPMI-1640 medium supplemented with 10% fetal calf serum, 100 units/mL penicillin, and 100 units/mL streptomycin (with 0.1% insulin added to the medium for 1A9 and MCF7 cell cultures). An MTT cell proliferation assay was used that involved the reduction of 3-(4,5-dimethylthiazol-2-yl)-2,5-diphenoyltetrazolium bromide (MTT) by viable cells as previously described.^14 Cells were treated with compounds of the invention in 96-well plates (duplicate wells) for 2 days (for HL-60) or 3 days (for 1A9 or MCF7), then incubated with 5 mg/mL MTT in phosphate-buffered saline for 2 h. The blue crystals that formed were solubilised in 10% sodium dodecyl sulfate, 45% dimethylformamide and the absorbance of the solutions measured at 570 nm in a multiwell plate reader (EnSpire™ 2300 Multiplate Reader from Perkin Elmer, Waltham, USA. The half-maximal inhibitory concentration (IC50) was calculated from a concentration-response curve using Sigma Plot software v8 (Systat Software Inc. Point Richmond, Calif.).

AMPK A2/B1/G1 = AMPK A2/B1/G1 (Homo sapiens, UniProt P54646); assay: SelectScreen kinase profiling, Z'-LYTE protocol; assay type: biochemical
Method: (§3) Kinase inhibition assays were conducted by Life Technologies using their SelectScreen® Whole Panel ACCESS Biochemical Kinase Profiling Service. The Z'-LYTE® Screening Protocol was used to obtain the results for the following kinases: AMPK A2/B1/G1, BMX, BTK, MAPK14 (p38 alpha), PLK1, TXK. The LanthaScreen Protocol was used to obtain the result for the following kinase: NUAK2.
(§4) Compound 10 was assessed for kinase inhibition by Life Technologies using the SelectScreen® Whole Panel ACCESS Biochemical Kinase Profiling Service. The Z'-LYTE® Screening Protocol was used to obtain the results for the following kinases: AMPK A2/B1/G1, BMX, BTK, MAPK14 (p38 alpha), PLK1, TXK. The LanthaScreen Protocol was used to obtain the result for the following kinase: NUAK2.

TXK = biological target: T1, TXK (Homo sapiens, UniProt P42681); assay: SelectScreen kinase profiling, Z'-LYTE protocol; assay type: biochemical
T1 sequence (P42681 1-527): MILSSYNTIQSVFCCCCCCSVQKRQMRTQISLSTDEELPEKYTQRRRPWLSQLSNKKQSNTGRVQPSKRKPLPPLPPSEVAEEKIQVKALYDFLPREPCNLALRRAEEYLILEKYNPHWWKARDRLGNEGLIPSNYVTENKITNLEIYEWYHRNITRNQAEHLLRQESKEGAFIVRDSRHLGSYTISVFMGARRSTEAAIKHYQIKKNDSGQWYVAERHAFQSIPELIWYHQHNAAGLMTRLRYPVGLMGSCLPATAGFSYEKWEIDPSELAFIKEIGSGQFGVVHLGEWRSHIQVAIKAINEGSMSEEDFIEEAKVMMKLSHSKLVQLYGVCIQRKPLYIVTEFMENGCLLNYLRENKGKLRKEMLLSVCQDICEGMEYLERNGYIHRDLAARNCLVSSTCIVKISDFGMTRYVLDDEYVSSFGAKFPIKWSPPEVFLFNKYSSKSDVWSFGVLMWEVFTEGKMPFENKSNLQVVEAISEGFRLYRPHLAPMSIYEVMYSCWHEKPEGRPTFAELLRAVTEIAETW
Method: as §3, §4

MAPK14 (p38 alpha) = MAPK14 (p38 alpha) (Homo sapiens, UniProt Q16539); assay: SelectScreen kinase profiling, Z'-LYTE protocol; assay type: biochemical
Method: as §3, §4

PLK1 = PLK1 (Homo sapiens, UniProt P53350); assay: SelectScreen kinase profiling, Z'-LYTE protocol; assay type: biochemical
Method: as §3, §4

BMX = biological target: T2, BMX (Homo sapiens, UniProt P51813); assay: SelectScreen kinase profiling, Z'-LYTE protocol; assay type: biochemical
T2 sequence (P51813 1-675): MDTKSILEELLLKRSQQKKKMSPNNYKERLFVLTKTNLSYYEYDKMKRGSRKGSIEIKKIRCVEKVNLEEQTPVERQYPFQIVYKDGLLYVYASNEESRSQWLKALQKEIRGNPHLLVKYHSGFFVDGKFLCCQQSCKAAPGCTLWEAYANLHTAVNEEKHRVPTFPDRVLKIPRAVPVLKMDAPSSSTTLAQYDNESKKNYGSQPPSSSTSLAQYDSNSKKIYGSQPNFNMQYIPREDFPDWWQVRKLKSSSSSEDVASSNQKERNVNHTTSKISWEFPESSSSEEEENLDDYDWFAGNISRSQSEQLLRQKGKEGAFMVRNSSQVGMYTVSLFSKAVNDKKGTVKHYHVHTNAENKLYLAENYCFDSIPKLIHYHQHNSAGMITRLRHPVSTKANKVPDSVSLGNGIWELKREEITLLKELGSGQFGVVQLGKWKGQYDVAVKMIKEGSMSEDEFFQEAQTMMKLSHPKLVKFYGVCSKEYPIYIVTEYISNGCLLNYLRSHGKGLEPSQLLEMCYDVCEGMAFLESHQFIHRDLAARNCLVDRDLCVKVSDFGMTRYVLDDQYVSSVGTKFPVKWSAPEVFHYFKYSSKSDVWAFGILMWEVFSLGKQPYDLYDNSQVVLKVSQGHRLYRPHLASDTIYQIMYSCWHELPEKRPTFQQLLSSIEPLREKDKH
Method: as §3, §4

[3] = biological target: BTK (Bruton's tyrosine kinase) (Homo sapiens, UniProt Q06187); assay: SelectScreen kinase profiling, Z'-LYTE protocol; assay type: biochemical
Method: as §3, §4

NUAK2 = biological target: T3, NUAK2 (Homo sapiens, UniProt Q9H093); assay: SelectScreen kinase profiling, LanthaScreen protocol; assay type: biochemical
T3 sequence (Q9H093 1-628): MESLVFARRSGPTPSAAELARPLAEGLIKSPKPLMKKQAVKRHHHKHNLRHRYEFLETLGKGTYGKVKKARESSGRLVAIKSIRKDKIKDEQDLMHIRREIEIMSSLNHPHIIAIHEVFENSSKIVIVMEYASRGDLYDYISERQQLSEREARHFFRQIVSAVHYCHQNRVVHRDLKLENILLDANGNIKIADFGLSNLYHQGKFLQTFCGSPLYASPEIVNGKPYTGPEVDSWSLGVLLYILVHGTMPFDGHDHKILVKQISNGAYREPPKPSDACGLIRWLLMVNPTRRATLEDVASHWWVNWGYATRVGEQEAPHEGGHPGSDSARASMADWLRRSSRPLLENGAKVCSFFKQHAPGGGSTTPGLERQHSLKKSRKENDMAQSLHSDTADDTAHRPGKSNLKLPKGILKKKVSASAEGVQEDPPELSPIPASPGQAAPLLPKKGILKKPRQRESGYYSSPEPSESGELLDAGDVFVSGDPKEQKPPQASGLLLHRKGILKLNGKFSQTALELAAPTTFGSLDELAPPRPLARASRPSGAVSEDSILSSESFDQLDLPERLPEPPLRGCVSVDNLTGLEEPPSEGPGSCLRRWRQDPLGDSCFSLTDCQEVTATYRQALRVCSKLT
Method: as §3, §4

[4] = tested on: MCF7 (breast cancer) cell line; assay: MTT cell proliferation assay, MCF7; assay type: cell-based; conditions: Homo sapiens, 72 h, 3 days, read-out: IC50, growth inhibition
Method: as §1, §2

[5] = tested on: 1A9 (ovarian cancer) cell line; assay: MTT cell proliferation assay, 1A9; assay type: cell-based; conditions: 1A9, MTT assay, 3 days; read-out: IC50, growth inhibition
Method: as §1, §2

[6] = read-out: Inhibition (IC50 at 10 μM)
[7] = single-point, read-out: percent inhibition

Chain of AMPK A2/B1/G1 (P54646 whole entry): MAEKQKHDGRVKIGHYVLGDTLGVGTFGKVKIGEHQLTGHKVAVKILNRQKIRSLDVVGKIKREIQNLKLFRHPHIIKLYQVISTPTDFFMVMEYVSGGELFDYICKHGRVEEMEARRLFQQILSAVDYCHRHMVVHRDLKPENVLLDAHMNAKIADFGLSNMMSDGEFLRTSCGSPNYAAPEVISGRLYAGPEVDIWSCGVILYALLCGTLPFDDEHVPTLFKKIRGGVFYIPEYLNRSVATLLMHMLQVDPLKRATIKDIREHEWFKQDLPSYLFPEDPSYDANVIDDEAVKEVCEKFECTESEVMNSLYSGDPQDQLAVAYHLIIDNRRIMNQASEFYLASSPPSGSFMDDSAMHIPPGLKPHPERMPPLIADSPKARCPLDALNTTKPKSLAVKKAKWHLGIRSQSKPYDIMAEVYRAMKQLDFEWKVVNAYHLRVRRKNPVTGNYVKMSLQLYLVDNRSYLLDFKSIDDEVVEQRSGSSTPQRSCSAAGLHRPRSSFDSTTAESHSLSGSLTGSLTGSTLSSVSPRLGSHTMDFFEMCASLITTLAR
Chain of AMPK A2/B1/G1 (Q9Y478 whole entry partner): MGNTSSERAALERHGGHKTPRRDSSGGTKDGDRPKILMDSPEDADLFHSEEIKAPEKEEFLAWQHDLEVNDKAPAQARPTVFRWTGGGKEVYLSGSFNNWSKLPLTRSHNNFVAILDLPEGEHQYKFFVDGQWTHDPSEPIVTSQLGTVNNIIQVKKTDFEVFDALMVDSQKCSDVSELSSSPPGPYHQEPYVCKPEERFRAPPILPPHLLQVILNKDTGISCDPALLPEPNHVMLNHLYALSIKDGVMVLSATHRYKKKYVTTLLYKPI
Chain of AMPK A2/B1/G1 (P54619 whole entry partner): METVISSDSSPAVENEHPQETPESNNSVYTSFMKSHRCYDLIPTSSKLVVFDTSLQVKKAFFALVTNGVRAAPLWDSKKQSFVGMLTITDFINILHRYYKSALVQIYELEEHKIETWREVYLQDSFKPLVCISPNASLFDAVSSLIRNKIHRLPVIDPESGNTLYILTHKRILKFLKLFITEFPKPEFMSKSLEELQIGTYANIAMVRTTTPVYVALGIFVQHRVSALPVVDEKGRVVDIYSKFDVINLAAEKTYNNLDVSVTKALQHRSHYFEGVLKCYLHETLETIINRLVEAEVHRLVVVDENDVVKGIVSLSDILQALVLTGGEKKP
Chain of MAPK14 (p38 alpha) (Q16539 whole entry): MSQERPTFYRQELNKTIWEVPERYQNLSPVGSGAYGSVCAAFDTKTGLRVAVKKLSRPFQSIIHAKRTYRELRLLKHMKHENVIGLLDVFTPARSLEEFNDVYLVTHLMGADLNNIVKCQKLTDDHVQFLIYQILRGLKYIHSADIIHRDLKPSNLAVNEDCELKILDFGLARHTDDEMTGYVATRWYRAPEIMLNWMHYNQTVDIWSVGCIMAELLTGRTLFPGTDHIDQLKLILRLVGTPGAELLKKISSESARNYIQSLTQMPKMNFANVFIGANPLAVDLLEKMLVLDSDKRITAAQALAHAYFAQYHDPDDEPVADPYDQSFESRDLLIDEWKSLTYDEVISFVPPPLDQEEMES
Chain of c-Src (sarcoma) kinase (P12931 whole entry): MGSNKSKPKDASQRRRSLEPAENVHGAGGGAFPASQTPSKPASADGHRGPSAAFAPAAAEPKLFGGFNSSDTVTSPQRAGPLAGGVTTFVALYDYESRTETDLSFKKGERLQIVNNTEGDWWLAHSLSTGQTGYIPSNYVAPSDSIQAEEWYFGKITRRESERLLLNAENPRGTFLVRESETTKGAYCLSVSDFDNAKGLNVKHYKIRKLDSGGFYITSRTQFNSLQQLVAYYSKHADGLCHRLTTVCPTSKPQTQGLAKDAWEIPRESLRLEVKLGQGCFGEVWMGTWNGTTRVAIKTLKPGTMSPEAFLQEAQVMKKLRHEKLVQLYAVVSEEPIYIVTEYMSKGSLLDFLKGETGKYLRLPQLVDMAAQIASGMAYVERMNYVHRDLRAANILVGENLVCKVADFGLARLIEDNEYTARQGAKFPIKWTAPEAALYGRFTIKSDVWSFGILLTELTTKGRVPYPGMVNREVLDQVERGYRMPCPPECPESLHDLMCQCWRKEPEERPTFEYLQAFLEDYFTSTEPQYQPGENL
Chain of PLK1 (P53350 whole entry): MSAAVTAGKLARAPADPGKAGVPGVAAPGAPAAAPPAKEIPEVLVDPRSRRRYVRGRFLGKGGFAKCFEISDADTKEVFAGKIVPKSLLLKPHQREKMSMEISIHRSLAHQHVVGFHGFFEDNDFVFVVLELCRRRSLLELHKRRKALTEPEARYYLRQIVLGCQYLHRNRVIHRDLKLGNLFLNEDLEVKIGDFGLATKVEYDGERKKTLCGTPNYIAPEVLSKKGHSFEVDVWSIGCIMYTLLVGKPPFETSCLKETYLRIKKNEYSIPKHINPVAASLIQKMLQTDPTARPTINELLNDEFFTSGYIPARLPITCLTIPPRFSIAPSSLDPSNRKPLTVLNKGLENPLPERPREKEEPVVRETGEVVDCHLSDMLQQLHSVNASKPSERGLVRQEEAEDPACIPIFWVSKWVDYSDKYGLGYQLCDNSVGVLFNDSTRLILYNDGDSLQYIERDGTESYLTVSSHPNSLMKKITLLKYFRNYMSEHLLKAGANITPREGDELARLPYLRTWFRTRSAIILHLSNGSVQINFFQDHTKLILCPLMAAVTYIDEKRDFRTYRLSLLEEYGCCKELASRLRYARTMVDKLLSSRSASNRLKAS
Chain of BTK (Bruton's tyrosine kinase) (Q06187 whole entry): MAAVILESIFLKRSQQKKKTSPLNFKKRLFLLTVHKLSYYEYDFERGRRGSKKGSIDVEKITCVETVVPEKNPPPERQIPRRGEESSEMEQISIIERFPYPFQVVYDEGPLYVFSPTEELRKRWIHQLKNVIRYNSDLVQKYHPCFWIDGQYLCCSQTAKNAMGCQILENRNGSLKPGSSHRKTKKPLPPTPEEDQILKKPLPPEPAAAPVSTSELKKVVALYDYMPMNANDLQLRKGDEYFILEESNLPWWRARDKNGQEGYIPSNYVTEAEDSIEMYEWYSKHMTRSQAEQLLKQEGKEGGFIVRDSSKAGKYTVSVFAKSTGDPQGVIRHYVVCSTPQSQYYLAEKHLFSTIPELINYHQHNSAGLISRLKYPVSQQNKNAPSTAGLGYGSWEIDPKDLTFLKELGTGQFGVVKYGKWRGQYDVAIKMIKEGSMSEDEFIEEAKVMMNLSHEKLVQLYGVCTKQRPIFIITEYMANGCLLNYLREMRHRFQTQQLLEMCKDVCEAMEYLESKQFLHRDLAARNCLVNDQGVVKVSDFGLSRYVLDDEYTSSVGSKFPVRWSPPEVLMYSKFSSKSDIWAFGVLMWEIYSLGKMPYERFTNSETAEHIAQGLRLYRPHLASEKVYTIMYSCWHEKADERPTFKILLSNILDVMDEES

In the case of `C/C=C/[C@H]1O[C@@H]2C(=C[C@H]1O)C(=O)O[C@H]2C` [(−)-TAN-2483A], the “inhibition of PTH-induced bone resorption” value [1] is listed as “inhibition” and the “inhibition of c-Src (sarcoma) kinase” value (c-Src (sarcoma) kinase) is listed as “inhibition”.

In the case of `C/C=C/[C@H]1O[C@H]2C(=C[C@H]1O)C(=O)O[C@H]2C` [(−)-TAN-2483B], the “inhibition of PTH-induced bone resorption” value [1] is listed as “inhibition” and the “inhibition of c-Src (sarcoma) kinase” value (c-Src (sarcoma) kinase) is listed as “inhibition”.

`CCOC(=O)/C=C\[C@H]1O[C@H]2C(=C[C@H]1O)C(=O)O[C@H]2C` [Compound 10, (−)-TAN-2483B Z-ethyl ester] showed an IC50 ([2]; Homo sapiens, 48 h) of 3.6 µM, an inhibition at 10 µM (AMPK A2/B1/G1; AMPK A2/B1/G1, at 10 μM, read-out: Inhibition (IC50 at 10 μM)) of 81% and an inhibition at 10 µM (AMPK A2/B1/G1; AMPK A2/B1/G1, single-point, at 10 μM, read-out: percent inhibition) of 81%. It also gave an inhibition at 10 µM (TXK; TXK1, at 10 μM, read-out: Inhibition (IC50 at 10 μM)) of 71%, an inhibition at 10 µM (TXK; TXK, single-point, at 10 μM, read-out: percent inhibition) of 71% and an inhibition at 10 µM (MAPK14 (p38 alpha); MAPK14 (p38 alpha), single-point, at 10 μM, read-out: percent inhibition) of 74%. The inhibition at 10 µM (MAPK14 (p38 alpha); MAPK14, at 10 μM, read-out: Inhibition (IC50 at 10 μM)) was 74%, the inhibition at 10 µM (PLK1; PLK1, at 10 μM, read-out: Inhibition (IC50 at 10 μM)) was 81% and the inhibition at 10 µM (PLK1; PLK1, single-point, at 10 μM, read-out: percent inhibition) was 81%. It also gave an inhibition at 10 µM (BMX; [6]) of 80%, an inhibition at 10 µM (BMX; [7]) of 80% and an inhibition at 10 µM [3, 6] of 83%. For the same compound, the inhibition at 10 µM [3, 7] was 83%, the inhibition at 10 µM (NUAK2; NUAK2, at 10 μM, read-out: Inhibition (IC50 at 10 μM)) was 76% and the inhibition at 10 µM (NUAK2; NUAK2, single-point, at 10 μM, read-out: percent inhibition) was 76%. It also gave an IC50 [4] of 9 µM.

`C[C@@H]1OC(=O)C2=C[C@@H](O)[C@@H](/C=C/CO)O[C@@H]21` [Compound 19, Hydroxy-TAN-2483B] gave an IC50 ([2]; Homo sapiens, 48 h) of 42 µM.

Work on “(−)-TAN-2483B E-ethyl ester [Compound 14]” yielded an IC50 [2] of 2.2 µM and an IC50 [5] of 3.4 µM.
